“And” between values parts separate entries of the source, which are not always exact repeats. Identical values can stand only once. Like-named read-outs stand apart in the source and are kept apart here.
What was measured:
Format in all cases: physicochemical
[1] = Separation of binary mixture of rare-earth metals by precipitation using L1, MOPS pH 8.5 (Example 8); conditions: supernatant
Description: Analogous to Example 7), the well plate was then centrifuged and concentrations of the metals were determined using ICP-OES. The resulting concentrations of both metals in the supernatants and their ratios are summarized in […]

[2] = Separation of Eu/Yb mixture by precipitation using L5 (Example 15); conditions: for Precipitate concentration [mM] Eu / Precipitate concentration [mM] Yb: dissolved to 150 μL
Description: Stock solutions were pipetted into round-bottom 2 mL Eppendorf tubes as follows: • 1. 15 μL 100 mM aqueous solution of EuCl3 • 2. 10 μL 100 mM aqueous solution of YbCl3 • 3. 30 μL 100 mM aqueous solution of compound L5. • 4. 90 μL 0.5 M MOPS buffer pH=7.
Three identical reaction mixtures were prepared. Each tube was equipped with one PTFE-coated magnetic stir bar and sealed, and the mixture was stirred on a magnetic stirrer for 24 hours at room temperature. The tubes were then centrifuged and the supernatants were carefully pipetted out and transferred to a new set of tubes. To the precipitate was added 100 μL 1 M HCl (reaching pH=0) and the mixture was stirred until full dissolution (overnight at room temperature, pH=0). The overall volume of the solution was adjusted to 150 μL volume by addition of water. The supernatants were treated with 1 M HCl for a total volume of 150 μL and pH=0.5. Concentrations of Eu and Yb in the supernatants and in the re-dissolved precipitates were determined by ICP-OES. The resulting absolute concentrations of both metals in the supernatants and precipitates, as well as calculated values of the separation factor Yb/Eu according to formula from Example 11), are summarized in Table 9. […] The average separation factor value was 152.

[3] = Separation of Nd/Pr/Tb/Dy mixture by precipitation using L5 and α-HIBA (Example 23)
Description: These aqueous reaction mixtures, each prepared to a total volume of 1.5 mL with the addition of water as necessary, were mixed by the use of a PTFE-coated stir bar on a magnetic stirrer. The cuvettes were sealed with transparent tape to prevent evaporation overnight. […] The supernatants were carefully pipetted out and transferred to a new set of tubes. […] The absolute concentration of the four metals in each supernatant and precipitate was determined by ICP-OES.

[4] = L5 + α-HIBA, MOPS pH=7, 18 hours, individual samples A, B, C
[5] = L5 + α-HIBA, MOPS pH=7, 18 hours, precipitate dissolved to 500 μL, individual samples A, B, C

## O=C(O)CN1CCN(CC(=O)O)CCN(Cc2ccccc2)CCN(CC(=O)O)CC1 [L1, 2,2′,2″-(10-benzyl-1,4,7,10-tetraazacyclododecane-1,4,7-triyl)triacetic Acid]
[1]; M1=Ce, M2=Er
  [mM] M1: 0.280 mM
[1]; M1=Ce, M2=Tm
  [mM] M1: 0.425 mM
  [mM] Tm: 2.035 mM
[1]; M1=Ce
  M1/Er: 0.51
[1]; M1=Dy, M2=Er
  [mM] M1: 0.338 mM
[1]; M1=Dy, M2=Tm
  [mM] M1: 0.362 mM
  [mM] Tm: 2.382 mM
[1]; M1=Dy
  M1/Er: 0.34
[1]; M1=Er, M2=Er
  [mM] M1: 4.969 mM
[1]; M1=Er, M2=Tm
  [mM] M1: 2.759 mM
  [mM] Tm: 3.368 mM
[1]; M1=Er
  M1/Er: 1.00
[1]; M1=Eu, M2=Er
  [mM] Er: 0.680 mM
  [mM] M1: 0.244 mM
[1]; M1=Eu, M2=Tm
  [mM] M1: 0.244 mM
  [mM] Tm: 2.091 mM
[1]; M1=Eu
  M1/Er: 0.36
[1]; M1=Gd, M2=Er
  [mM] Er: 0.972 mM
  [mM] M1: 0.402 mM
[1]; M1=Gd, M2=Tm
  [mM] M1: 0.254 mM
  [mM] Tm: 1.814 mM
[1]; M1=Gd
  M1/Er: 0.41
[1]; M1=Ho, M2=Er
  [mM] M1: 0.496 mM
[1]; M1=Ho, M2=Tm
  [mM] M1: 0.521 mM
  [mM] Tm: 2.329 mM
[1]; M1=Ho
  M1/Er: 0.60
[1]; M1=La, M2=Er
  [mM] M1: 0.368 mM
[1]; M1=La, M2=Tm
  [mM] M1: 0.616 mM
  [mM] Tm: 2.425 mM
[1]; M1=La
  M1/Er: 0.57
[1]; M1=Lu, M2=Er
  [mM] M1: 7.607 mM
[1]; M1=Lu, M2=Tm
  [mM] M1: 7.337 mM
  [mM] Tm: 4.588 mM
[1]; M1=Lu
  M1/Er: 1.67
[1]; M1=Nd, M2=Er
  [mM] Er: 0.692 mM
  [mM] M1: 0.280 mM
[1]; M1=Nd, M2=Tm
  [mM] M1: 0.315 mM
  [mM] Tm: 1.892 mM
[1]; M1=Nd
  M1/Er: 0.40
[1]; M1=Pr, M2=Er
  [mM] M1: 0.210 mM
[1]; M1=Pr, M2=Tm
  [mM] M1: 0.298 mM
  [mM] Tm: 2.016 mM
[1]; M1=Pr
  M1/Er: 0.32
[1]; M1=Sc, M2=Er
  [mM] M1: 5.191 mM
[1]; M1=Sc, M2=Tm
  [mM] M1: 5.087 mM
  [mM] Tm: 4.448 mM
[1]; M1=Sc
  M1/Er: 1.16
[1]; M1=Sm, M2=Er
  [mM] Er: 0.734 mM
  [mM] M1: 0.197 mM
[1]; M1=Sm, M2=Tm
  [mM] M1: 0.218 mM
  [mM] Tm: 2.090 mM
[1]; M1=Sm
  M1/Er: 0.27
[1]; M1=Tb, M2=Er
  [mM] M1: 0.225 mM
[1]; M1=Tb, M2=Tm
  [mM] M1: 0.225 mM
  [mM] Tm: 2.342 mM
[1]; M1=Tb
  M1/Er: 0.28
[1]; M1=Tm, M2=Er
  [mM] M1: 3.971 mM
[1]; M1=Tm, M2=Tm
  [mM] M1: 4.779 mM
  [mM] Tm: 4.779 mM
[1]; M1=Tm
  M1/Er: 1.73
[1]; M1=Y, M2=Er
  [mM] M1: 0.503 mM
[1]; M1=Y, M2=Tm
  [mM] M1: 0.480 mM
  [mM] Tm: 2.367 mM
[1]; M1=Y
  M1/Er: 0.56
[1]; M1=Yb, M2=Er
  [mM] M1: 5.400 mM
[1]; M1=Yb, M2=Tm
  [mM] M1: 5.477 mM
  [mM] Tm: 4.598 mM
[1]; M1=Yb
  M1/Er: 1.25

## O=C(O)CN1CCN(CC(=O)O)CCN(Cc2cccc3ccccc23)CCN(CC(=O)O)CC1 [L5, 2,2′,2″-(10-(naphthalene-1-ylmethyl)-1,4,7,10-tetraazacyklododekane-1,4,7-triyl)triacetic acid]
[2]
  Supernatant concentration [mM] Eu: 0.16 mM and 0.22 mM
  Supernatant concentration [mM] Yb: 3.69 mM and 3.85 mM and 3.97 mM
  Precipitate concentration [mM] Eu: 4.66 mM and 4.57 mM and 4.50 mM
  Precipitate concentration [mM] Yb: 0.63 mM and 0.62 mM and 0.58 mM
[2]; mean
  Precipitate concentration [mM] Eu: 4.58 mM
  Precipitate concentration [mM] Yb: 0.61 mM
  Supernatant concentration [mM] Eu: 0.19 mM
  Supernatant concentration [mM] Yb: 3.84 mM
[3]; [4]
  supernatant concentration Dy: 1.73 and 1.38 and 1.65
  supernatant concentration Nd: 1.31 and 0.78 and 0.98
  supernatant concentration Pr: 0.32 and 0.20 and 0.24
  supernatant concentration Tb: 1.22 and 1.00 and 1.17
[3]; [5]
  precipitate concentration Dy: 1.04 and 0.95 and 1.05
  precipitate concentration Nd: 8.60 and 7.83 and 8.96
  precipitate concentration Pr: 2.30 and 2.08 and 2.40
  precipitate concentration Tb: 1.25 mM (2×) and 1.11 mM
[3]; average of samples A-C
  precipitate concentration Dy, average: 1.01
  precipitate concentration Nd, average: 8.46
  precipitate concentration Pr, average: 2.26
  precipitate concentration Tb, average: 1.20
  supernatant concentration Dy, average: 1.59
  supernatant concentration Nd, average: 1.03
  supernatant concentration Pr, average: 0.25
  supernatant concentration Tb, average: 1.13
[3]; percent composition of phase
  % comp of precipitate, Dy: 7.8%
  % comp of precipitate, Nd: 65.4%
  % comp of precipitate, Pr: 17.5%
  % comp of precipitate, Tb: 9.3%
  % comp of supernatant, Dy: 39.7%
  % comp of supernatant, Nd: 25.7%
  % comp of supernatant, Pr: 6.3%
  % comp of supernatant, Tb: 28.3%

Source: patent US20230356105A1, “TETRAAZADODECANE BASED CHELATING AGENTS FOR SEPARATION OF RARE EARTH ELEMENTS AND METHOD THEREFOR” (Ustav Organicke Chemie a Biochemie AV CR V.V.I., priority 2020, published 2023)
